This passage reports IC50 results from patent US11759455B2, “Substituted 1H-imidazo[4,5-b]pyridin-2(3H)-ones and their use as GLUN2B receptor modulators” (JANSSEN PHARMACEUTICA NV, priority 2016, dated 2023).

The target of the first assay is T1, human GluN1/GluN2B NMDA receptors (Homo sapiens, UniProt Q13224).
T1 construct: expressed in transfected cells
T1 sequence (Q13224 27-1484, other chains not shown): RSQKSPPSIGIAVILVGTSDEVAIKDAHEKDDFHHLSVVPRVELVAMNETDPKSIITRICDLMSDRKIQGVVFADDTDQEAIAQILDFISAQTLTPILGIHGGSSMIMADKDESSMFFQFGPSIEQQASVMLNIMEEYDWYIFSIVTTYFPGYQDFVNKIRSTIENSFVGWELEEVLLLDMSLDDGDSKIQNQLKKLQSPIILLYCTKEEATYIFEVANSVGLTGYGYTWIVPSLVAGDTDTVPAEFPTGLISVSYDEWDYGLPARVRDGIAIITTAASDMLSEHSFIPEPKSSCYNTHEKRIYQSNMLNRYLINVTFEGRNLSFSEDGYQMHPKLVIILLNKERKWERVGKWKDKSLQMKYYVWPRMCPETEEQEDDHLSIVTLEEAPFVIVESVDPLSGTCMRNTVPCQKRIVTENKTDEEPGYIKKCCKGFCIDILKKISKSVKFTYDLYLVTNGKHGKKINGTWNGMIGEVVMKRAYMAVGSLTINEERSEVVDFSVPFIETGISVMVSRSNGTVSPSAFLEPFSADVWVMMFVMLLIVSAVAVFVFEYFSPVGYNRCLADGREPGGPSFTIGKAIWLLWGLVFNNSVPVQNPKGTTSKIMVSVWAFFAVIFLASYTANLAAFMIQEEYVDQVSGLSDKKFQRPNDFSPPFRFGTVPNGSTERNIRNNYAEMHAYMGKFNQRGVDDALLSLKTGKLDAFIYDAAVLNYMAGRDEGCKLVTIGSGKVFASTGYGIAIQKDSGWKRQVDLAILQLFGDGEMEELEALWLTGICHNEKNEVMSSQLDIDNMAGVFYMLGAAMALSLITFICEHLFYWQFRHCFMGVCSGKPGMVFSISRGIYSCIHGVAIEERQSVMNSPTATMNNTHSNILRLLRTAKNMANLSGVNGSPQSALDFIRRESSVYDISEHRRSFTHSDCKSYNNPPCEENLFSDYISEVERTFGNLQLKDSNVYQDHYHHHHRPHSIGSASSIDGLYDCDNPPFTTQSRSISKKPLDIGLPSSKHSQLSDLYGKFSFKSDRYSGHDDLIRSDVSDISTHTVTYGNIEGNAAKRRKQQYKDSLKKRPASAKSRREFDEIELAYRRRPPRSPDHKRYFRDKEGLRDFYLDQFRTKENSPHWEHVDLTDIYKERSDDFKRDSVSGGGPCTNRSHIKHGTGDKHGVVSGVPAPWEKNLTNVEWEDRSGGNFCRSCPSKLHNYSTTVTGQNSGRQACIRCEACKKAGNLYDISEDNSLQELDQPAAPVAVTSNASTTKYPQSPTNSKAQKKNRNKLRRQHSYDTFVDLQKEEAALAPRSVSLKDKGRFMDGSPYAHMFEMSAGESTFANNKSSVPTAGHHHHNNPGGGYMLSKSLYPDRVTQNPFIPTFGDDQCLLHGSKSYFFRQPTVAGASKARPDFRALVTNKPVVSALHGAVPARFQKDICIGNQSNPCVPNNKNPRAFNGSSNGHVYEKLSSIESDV
Description: Cell-based calcium flux (FLIPR) assay on cloned human NR1/NR2B ion channels expressed in mammalian cells (standard and HTS buffer variants).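 Further: stable Tet-On inducible cell line, Ca2+ influx triggered by glutamate at about EC40 plus 10 µM glycine, fluorescent dye read-out over 5 min, normalized to control wells.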 The settings on record: HTS assay buffer (1.5 mM MgCl2 dye loading; 150 mM NaCl, 3 mM KCl assay buffer), human GluN1/GluN2B cells, read-out: NR2B IC50 (μM) HTS assay.
Broadly, the IC50 is the concentration at which inhibition is half-maximal. As to `COc1ccc(-c2cnc3[nH]c(=O)n(CC(=O)N4CCCC4)c3c2)cc1` [Example 35, 6-(4-Methoxyphenyl)-1-(2-oxo-2-pyrrolidin-1-yl-ethyl)-3H-imidazo[4,5-b]pyridin-2-one], the IC50 was determined as 2.14 µM.

`COc1ccc(-c2cnc3[nH]c(=O)n(CC(=O)NC4CC4)c3c2)c(Cl)c1` [Example 37, 2-[6-(2-Chloro-4-methoxy-phenyl)-2-oxo-3H-imidazo[4,5-b]pyridin-1-yl]-N-cyclopropyl-acetamide]: the concentration for half-maximal inhibition (IC50) worked out at 1.38 µM.

In the case of `COc1ccc(-c2cnc3[nH]c(=O)n(CC(=O)NC4CC4)c3c2)cc1` [Example 38, N-Cyclopropyl-2-[6-(4-methoxyphenyl)-2-oxo-3H-imidazo[4,5-b]pyridin-1-yl]acetamide], the IC50 came out at 1.01 µM.

For the compound `Cc1cc(C)cc(-c2cnc3[nH]c(=O)n(CC(=O)NC4CC4)c3c2)c1` [Example 39, N-Cyclopropyl-2-[6-(3,5-dimethylphenyl)-2-oxo-3H-imidazo[4,5-b]pyridin-1-yl]acetamide], the IC50 came out at 1.03 µM.

`Cc1cc(F)ccc1-c1cnc2[nH]c(=O)n(CC(=O)N(C)C3CC3)c2c1` [Example 40, N-Cyclopropyl-2-[6-(4-fluoro-2-methyl-phenyl)-2-oxo-3H-imidazo[4,5-b]pyridin-1-yl]-N-methyl-acetamide]: the IC50 amounted to 1.82 µM.

Regarding `COc1ccc(-c2cnc3[nH]c(=O)n(CC(=O)N(C)C4CC4)c3c2)cc1` [Example 41, N-Cyclopropyl-2-[6-(4-methoxyphenyl)-2-oxo-3H-imidazo[4,5-b]pyridin-1-yl]-N-methyl-acetamide], the IC50 was determined as 8.72 µM.

For the compound `Cc1cc(F)ccc1-c1cnc2c(c1)n(CC(=O)NC1CC1)c(=O)n2C` [Example 42, N-Cyclopropyl-2-[6-(4-fluoro-2-methyl-phenyl)-3-methyl-2-oxo-imidazo[4,5-b]pyridin-1-yl]acetamide], the IC50 was found to be 2.71 µM.

Still in this assay, the particulars now being: standard assay buffer (0.5 mM MgCl2 dye loading; 137 mM NaCl, 4 mM KCl assay buffer), human GluN1/GluN2B cells, read-out: NR2B IC50 (μM) standard assay.
With `Cn1c(=O)n(CC(=O)N2CC(F)C2)c2cc(-c3cccc(C(F)(F)F)c3)cnc21` [Example 34, 1-[2-(3-Fluoroazetidin-1-yl)-2-oxo-ethyl]-3-methyl-6-[3-(trifluoromethyl)phenyl]imidazo[4,5-b]pyridin-2-one], the IC50 was found to be 0.065 µM.

For the compound `Cc1cc(F)ccc1-c1cnc2[nH]c(=O)n(CC(=O)NC3CC3)c2c1` [Example 36, N-Cyclopropyl-2-[6-(4-fluoro-2-methyl-phenyl)-2-oxo-3H-imidazo[4,5-b]pyridin-1-yl]acetamide], the IC50 stood at 0.159 µM.

Take `Cc1cc(-c2cnc3c(c2)n(Cc2cccnc2)c(=O)n3C)ccc1F` [Example 45, 6-(4-Fluoro-3-methyl-phenyl)-3-methyl-1-(3-pyridylmethyl)imidazo[4,5-b]pyridin-2-one]: the IC50 amounted to 0.038 µM.

On to `Cc1cc(-c2cnc3c(c2)n(Cc2ccncc2)c(=O)n3C)ccc1F` [Example 46, 6-(4-Fluoro-3-methyl-phenyl)-3-methyl-1-(4-pyridylmethyl)imidazo[4,5-b]pyridin-2-one], for which the IC50 came to 0.6 µM.

Take `Cc1cc(-c2cnc3c(c2)n(Cc2cnccn2)c(=O)n3C)ccc1F` [Example 47, 6-(4-Fluoro-3-methyl-phenyl)-3-methyl-1-(pyrazin-2-ylmethyl)imidazo[4,5-b]pyridin-2-one]: the IC50 came out at 0.113 µM.

Consider `Cc1cc(-c2cnc3c(c2)n(Cc2cncnc2)c(=O)n3C)ccc1F` [Example 48, 6-(4-Fluoro-3-methyl-phenyl)-3-methyl-1-(pyrimidin-5-ylmethyl)imidazo[4,5-b]pyridin-2-one], for which the IC50 came to 0.072 µM.

`Cc1cc(-c2cnc3c(c2)n(Cc2ncccn2)c(=O)n3C)ccc1F` [Example 49, 6-(4-Fluoro-3-methyl-phenyl)-3-methyl-1-(pyrimidin-2-ylmethyl)imidazo[4,5-b]pyridin-2-one]: the IC50 was found to be 0.486 µM.

On to `Cc1cc(-c2cnc3c(c2)n(Cc2cccnn2)c(=O)n3C)ccc1F` [Example 50, 6-(4-Fluoro-3-methyl-phenyl)-3-methyl-1-(pyridazin-3-ylmethyl)imidazo[4,5-b]pyridin-2-one], for which the IC50 was determined as 0.009 µM.

Regarding `Cn1c(=O)n(Cc2cccnc2)c2cc(-c3cccc(F)c3)cnc21` [Example 51, 6-(3-Fluorophenyl)-3-methyl-1-(3-pyridylmethyl)imidazo[4,5-b]pyridin-2-one], the IC50 turned out to be 22.6 µM.

`Cn1c(=O)n(Cc2ccncc2)c2cc(-c3cccc(F)c3)cnc21` [Example 52, 6-(3-Fluorophenyl)-3-methyl-1-(4-pyridylmethyl)imidazo[4,5-1D]pyridin-2-one]: the IC50 is 3.33 µM.

In the case of `Cn1c(=O)n(Cc2ccccn2)c2cc(-c3cccc(F)c3)cnc21` [Example 53, 6-(3-Fluorophenyl)-3-methyl-1-(2-pyridylmethyl)imidazo[4,5-b]pyridin-2-one], the IC50 stood at 1.4 µM.

For the compound `Cn1c(=O)n(Cc2cncnc2)c2cc(-c3cccc(F)c3)cnc21` [Example 54, 6-(3-Fluorophenyl)-3-methyl-1-(pyrimidin-5-ylmethyl)imidazo[4,5-b]pyridin-2-one], the IC50 came to 0.61 µM.

Consider `Cn1c(=O)n(Cc2cnccn2)c2cc(-c3cccc(F)c3)cnc21` [Example 55, 6-(3-Fluorophenyl)-3-methyl-1-(pyrazin-2-ylmethyl)imidazo[4,5-b]pyridin-2-one], for which the IC50 worked out at 3.03 µM.

Turning to `Cn1c(=O)n(Cc2ncccn2)c2cc(-c3cccc(F)c3)cnc21` [Example 56, 6-(3-Fluorophenyl)-3-methyl-1-(pyrimidin-2-ylmethyl)imidazo[4,5-b]pyridin-2-one], the IC50 was 8.71 µM.

As for `Cn1c(=O)n(Cc2cccnn2)c2cc(-c3cccc(F)c3)cnc21` [Example 57, 6-(3-Fluorophenyl)-3-methyl-1-(pyridazin-3-ylmethyl)imidazo[4,5-b]pyridin-2-one], the IC50 was 0.2 µM.

With `Cn1c(=O)n(Cc2ccncc2)c2cc(-c3ccc(F)c(F)c3)cnc21` [Example 58, 6-(3,4-Difluorophenyl)-3-methyl-1-(4-pyridylmethyl)imidazo[4,5-b]pyridin-2-one], the IC50 was found to be 1.9 µM.

Regarding `Cn1c(=O)n(Cc2cccnc2)c2cc(-c3ccc(F)c(F)c3)cnc21` [Example 59, 6-(3,4-Difluorophenyl)-3-methyl-1-(3-pyridylmethyl)imidazo[4,5-b]pyridin-2-one], the IC50 is 0.246 µM.

Take `Cn1c(=O)n(Cc2cncnc2)c2cc(-c3ccc(F)c(F)c3)cnc21` [Example 60, 6-(3,4-Difluorophenyl)-3-methyl-1-(pyrimidin-5-ylmethyl)imidazo[4,5-b]pyridin-2-one]: the IC50 amounted to 0.45 µM.

In the case of `Cn1c(=O)n(Cc2cccnn2)c2cc(-c3ccc(F)c(F)c3)cnc21` [Example 61, 6-(3,4-Difluorophenyl)-3-methyl-1-(pyridazin-3-ylmethyl)imidazo[4,5-b]pyridin-2-one], the IC50 came out at 0.223 µM.

Consider `Cn1c(=O)n(Cc2ccccn2)c2cc(-c3ccc(F)c(F)c3)cnc21` [Example 62, 6-(3,4-difluorophenyl)-3-methyl-1-(2-pyridylmethyl)imidazo[4,5-b]pyridin-2-one], for which the IC50 amounted to 2 µM.

In the case of `Cn1c(=O)n(Cc2cnccn2)c2cc(-c3ccc(F)c(F)c3)cnc21` [Example 63, 6-(3,4-Difluorophenyl)-3-methyl-1-(pyrazin-2-ylmethyl)imidazo[4,5-b]pyridin-2-one], the IC50 came to 2.3 µM.
